Source: patent US7384912B2, “Treatment of bone disorders with skeletal anabolic drugs” (Osteotrophin, LLC, priority 2002, dated 2008)
No end group written: not given here.

What was measured:
[1] = tested on: patients with osteoporosis; conditions: two to three years of administration; cited from earlier work
[2] = tested on: adenylate cyclase in SaOS-2 membranes; experiment: Adenylate cyclase assay in SaOS-2 cell membranes; type: biochemical, human; conditions: 30° C., 30 min
Experimental: Therefore, dose response curves for each peptide were generated at 30° C. for 10 min in human kidney and 30° C. for 30 min in SaOS-2 membranes. As with the intact cell adenylate cyclase assays, kidney and bone cell membrane adenlyate cyclase assays were performed under binding assay conditions. Results are expresses as percentage of maximal cAMP stimulation in order to compare peptide dose responses from different experiments.
(§1) Statistical differences were assessed by paired and unpaired two-tailed Student's t test.

[3] = tested on: adenylate cyclase in SaOS-2 intact cells; experiment: Adenylate cyclase assay in SaOS-2 intact cells; type: cell-based, human; conditions: 15° C., 60 min
Experimental: Adenylate cyclase-stimulating activity was examined in confluent SAOS-2 cells as previously described for ROS 17/2.8 cells (Merendino et al., Science 231:388-390, (1986)), with the following modification. The intact cell assay was conducted at 15° C., the same conditions employed for binding to intact SaOS-2 cells (vide supra). […] Dose response curves for each peptide were thus generated using 60 min incubations at 15° C. under binding assay conditions.
as §1

[4] = biological target: T1, PTH/PTHrP receptors in human renal cortical membranes (RCM) (Homo sapiens, UniProt Q03431); experiment: Competition binding of 125I-(Tyr36)hPTHrP-(1-36)NH2 to human renal cortical membranes; conditions: human RCM, 30° C., 30 min; read-out: Binding (IC50) Kidney membranes
T1 sequence (Q03431 27-593): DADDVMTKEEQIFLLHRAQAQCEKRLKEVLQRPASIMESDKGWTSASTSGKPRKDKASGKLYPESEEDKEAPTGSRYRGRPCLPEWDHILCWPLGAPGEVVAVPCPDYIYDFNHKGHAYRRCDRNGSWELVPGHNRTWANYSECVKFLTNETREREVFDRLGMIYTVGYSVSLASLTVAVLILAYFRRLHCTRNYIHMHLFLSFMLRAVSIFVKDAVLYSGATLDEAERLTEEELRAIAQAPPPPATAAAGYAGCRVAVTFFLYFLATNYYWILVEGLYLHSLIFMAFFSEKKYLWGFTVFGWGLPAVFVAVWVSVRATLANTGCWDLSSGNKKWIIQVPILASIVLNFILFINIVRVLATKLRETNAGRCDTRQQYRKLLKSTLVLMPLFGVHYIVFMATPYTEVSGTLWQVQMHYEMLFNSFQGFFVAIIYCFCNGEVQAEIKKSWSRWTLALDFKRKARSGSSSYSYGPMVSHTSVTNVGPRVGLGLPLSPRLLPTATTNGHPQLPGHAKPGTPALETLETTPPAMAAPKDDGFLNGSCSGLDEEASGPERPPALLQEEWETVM
Experimental: All steps were performed in the presence of the following protease inhibitors: aprotinin [10 Kallikrein inhibitor units (KIU/ml], pepstatin (5 μg/ml), leupeptin (45 μg/ml), and phenylmethanesulfanylfluoride (10 μg/ml). Normal human kidney cortex was from four separate nephrectomy specimens removed for localized transitional cell carcinoma, renal cell carcinoma, or benign cysts. Renal function in all individuals was normal as assessed by serum creatinine and pyelography. Membranes were pooled, aliquoted, and stored at −70° C. for later use.
Human RCM were added to a final concentration of 90 μg/ml. […] The incubation time of 30 min was used for subsequent equilibrium binding competition studies.
as §1

[5] = biological target: T2, PTH/PTHrP receptors in SaOS-2 membranes (Homo sapiens, UniProt Q03431); experiment: Competition binding of 125I-(Tyr36)hPTHrP-(1-36)NH2 to SaOS-2 membranes; conditions: 30° C., 60 min
T2 sequence (Q03431 27-593): T1 sequence (Q03431 27-593)
Experimental: Briefly, postconfluent cells in 150 cm^2 flasks were scraped into membrane buffer [10 mM Tris HCl (pH 7.5), 0.2 mM MgCl2, 0.5 mM EGTA, 1 mM dithiothreitol, leupeptin 45 μg/ml, pepstatin 5 μg/ml, aprotinin 10 KIU/ml, and phenylmethane sulfanyl-fluoride 10 μg/ml] at 0° C. Cell disruption was achieved by sonification and the suspension was centrifuged at 13,000×g for 15 min at 4° C. […] The suspension was layered onto a cushion of the membrane buffer containing 45% sucrose and centrifuged at 70,000×g for 30 min at 4° C. […] Protein concentrations were determined by the method of Lowry using BSA as standard.
The binding assay for SaOS-2 membranes was conducted as for human RCM. Membranes were added to a final concentration of 112.5 μg/ml and specific binding reached equilibrium by 60 min at 30° C.

Compound: CC(C)C[C@H](NC(=O)[C@H](CCCCN)NC(=O)CNC(=O)[C@H](CC(C)C)NC(=O)[C@@H](NC(=O)[C@@H]1CSSC[C@H](N)C(=O)N[C@@H](CO)C(=O)N[C@@H](CC(N)=O)C(=O)N[C@@H](CC(C)C)C(=O)N[C@@H](CO)C(=O)N[C@@H]([C@@H](C)O)C(=O)N1)C(C)C)C(=O)N[C@@H](CO)C(=O)N[C@@H](CCC(N)=O)C(=O)N[C@@H](CCC(=O)O)C(=O)N[C@@H](CC(C)C)C(=O)N[C@@H](Cc1c[nH]cn1)C(=O)N[C@@H](CCCCN)C(=O)N[C@@H](CC(C)C)C(=O)N[C@@H](CCC(N)=O)C(=O)N[C@H](C(=O)N[C@@H](Cc1ccc(O)cc1)C(=O)N1CCC[C@H]1C(=O)N[C@@H](CCCNC(=N)N)C(=O)N[C@H](C(=O)N[C@@H](CC(N)=O)C(=O)N[C@H](C(=O)NCC(=O)N[C@@H](CO)C(=O)NCC(=O)N[C@H](C(=O)N1CCC[C@H]1C(N)=O)[C@@H](C)O)[C@@H](C)O)[C@@H](C)O)[C@@H](C)O [calcitonin]
- increase in lumbar spine bone mineral density [1]: ~2%

Compound: CCCC[C@H](NC(=O)[C@H](CO)NC(=O)[C@H](CC(N)=O)NC(=O)[C@H](CC(C)C)NC(=O)[C@H](Cc1c[nH]cn1)NC(=O)[C@H](CCCCN)NC(=O)CNC(=O)[C@H](CC(C)C)NC(=O)[C@H](CC(N)=O)NC(=O)[C@H](Cc1c[nH]cn1)NC(=O)[C@H](CCCC)NC(=O)[C@H](CC(C)C)NC(=O)[C@H](CCC(N)=O)NC(=O)[C@@H](NC(=O)[C@H](CCC(=O)O)NC(=O)[C@H](CO)NC(=O)[C@@H](NC(=O)[C@@H](N)CO)C(C)C)[C@@H](C)CC)C(=O)N[C@@H](CCC(=O)O)C(=O)N[C@@H](CCCNC(=N)N)C(=O)N[C@H](C(=O)N[C@@H](CCC(=O)O)C(=O)N[C@@H](Cc1c[nH]c2ccccc12)C(=O)N[C@@H](CC(C)C)C(=O)N[C@@H](CCCNC(=N)N)C(=O)N[C@@H](CCCCN)C(=O)N[C@@H](CCCCN)C(=O)N[C@@H](CC(C)C)C(=O)N[C@@H](CCC(N)=O)C(=O)N[C@@H](CC(=O)O)C(=O)N[C@H](C(=O)N[C@@H](Cc1c[nH]cn1)C(=O)N[C@@H](CC(N)=O)C(=O)N[C@@H](Cc1ccc(O)cc1)C(=O)O)C(C)C)C(C)C [(Nle^8,18Tyr^34)hPTH-(1-34), (Nle^8,18, Tyr^34)hPTH-(1-34)]
- EC50 [2]: 1.9 ± 0.4 nM
- EC50 [3]: 2.3 ± 0.4 nM

Compound: AVSEHQLLHDKGKSIQDLRRRIFLQNLIEGVNTAEY-NH2 [(Tyr^36)cPTHrP-(1-36)NH2, (Tyr^36) chicken (c)PTHrP-(1-36)amide]
- IC50 [4]: 0.47 ± 0.22 nM
- IC50 [5]: 1.1 ± 0.3 nM
